The test system of one test is PPARs. Kind of test: PPARs agonist activity, collective evaluation (PPARα, δ and γ). As to conditions: for difference between activities of the R body and the S body, three PPARs: FIG. 6, three tests averaged. It is filed as cell-based. The procedure: (§1) The agonist activities of PPARα, PPARδ and PPARγ, respectively, were visually verified by a reporter gene assaying method using COS-1 cells so as to evaluate them. The evaluation method is as below.
(§2) The COS-1 cells were collected by trypsinization, centrifuged (1000 rpm, 4° C., 3 min.), and then seeded on a 60 mm Petri dish for cultivation in a density of 6×10^5 cells/well. After cultivation at 37° C. under 5% CO2 for 24 hours, cells were transformed using […]® Transfection Reagent (QIAGEN®). EC buffer ([…]), pPPARα-GAL4 (0.25 μg), pPPARδ-GAL4 (0.25 μg) or pPPARγ-GAL4 (0.25 μg), p17M2G (1 μg), pSEAP control vector (1 μg) were put into a 1.5 ml Eppendorf tube, to which 18 μl of Enhancer was added, and stirred by a vortex for 1 second. This was left to stand at room temperature for 3 minutes, to which 25 μl of Effectene was added, stirred by the voltex for 10 seconds, and left to stand at room temperature for 7 minutes. Simultaneously, the medium for transformation in the 60 mm Petri dish for cultivation was removed, to which […] of medium was added to exchange the medium. Seven minutes later, 1 ml of medium was added to the Eppendorf tube, suspended twice, dropped to a 60 mm Petri dish for cultivation, and cultivated 37° C. under 5% CO2 for 16 hours.
The cells were collected by trypsinization after 16 hours, centrifuged (1000 rpm, 4° C., 3 min.), and then suspended in 6 ml of medium, and seeded on a 96-well plate at 125 μl/well. […] Then the medium was collected at 25 μl/well, a secreted alkaline phosphatase (SEAP) activity was measured using GREAT ESCAPE™ SEAP (Clontech Laboratories, Inc.) kit. […] At room temperature, it was left to stand in a dark room for 1 hour, and then fluorescence intensity based on 4-methylumbelliferyl phosphate (Ex=360 nm, Em=460 nm) was measured.
(§3) In order to measure the activity for PPARα, luciferase activity measuring cocktail (Invitrogen) was added to other 96 well plate at 100 μl/well to measure the emission intensity. Compensation among each well was performed by dividing the measured value of the luciferase activity by the SEAP activity value.

The test system of test [1] is PPARα. Kind of test: PPARα agonist activity, reporter gene assay using COS-1 cells. It is filed as cell-based. The conditions noted are these: for difference between PPARα values of the R and S bodies: 25 μM, FIG. 6; for PPARα agonist activity: study of aliphatic chain length of δ-lactones; for PPARα agonist activity, ratio to WY14643 50 μM (= 1.00): FIG. 1. As to the method:
as §1, §2
(§4) The cells were collected by trypsinization after 16 hours, centrifuged (1000 rpm, 4° C., 3 min.), and then suspended in 6 ml of medium, and seeded on a 96-well plate at 125 μl/well. The sample solution was added at 1.25 μl/well after 2-3 hours, and cultivated 37° C. under 5% CO2 for 24 hours. Then the medium was collected at 25 μl/well, a secreted alkaline phosphatase (SEAP) activity was measured using GREAT ESCAPE™ SEAP (Clontech Laboratories, Inc.) kit. As the outline, 1× dilution buffer was added at 25 μl/well, mildly stirred, sealed with a scotch tape, and incubated at 65° C. for 30 minutes. Subsequently, it was cooled at 4° C., and returned to room temperature, then an assay buffer was added at 90 μl/well. It was left to stand at room temperature for 5 minutes, to which 10 μl of MUP solution was added at 10 μl/well. At room temperature, it was left to stand in a dark room for 1 hour, and then fluorescence intensity based on 4-methylumbelliferyl phosphate (Ex=360 nm, Em=460 nm) was measured.
as §3
7 to 9, i.e. C9 to C11 in which the α and β positions in the lactone ring of the raw material are substituted by double bonds, which are the compounds of the present invention. […] The structure of carbon number C8 lacks one side chain in the carbon number C9, and the structure of carbon number C12 adds one side chain to the carbon number C11, in which no double bond is provided. The carbon numbers C9 to C11 represents numbers of the carbon atoms in the compounds of Chemical formulae 4 to 6 and Chemical formulae 7 to 9.

Test [2] relates to PPARγ. Kind of test: PPARγ agonist activity, reporter gene assay using COS-1 cells. The format is cell-based. As to conditions: for PPARγ agonist activity compared with control substance 10 μM Trogliazone: 50 μM. As to the method:
as §1, §2, §4
(§5) Concentrations of the samples to be evaluated are 50 μM and 5 μM.
On the technique in general: A reporter such as luciferase makes a cellular process visible.

For a further test, the system named is PPARδ. Put plainly: PPARδ agonist activity, reporter gene assay using COS-1 cells. The format is cell-based. The procedure: as §1, §2, §4, §5
In test [3] the target is T1, PPARα (Homo sapiens, UniProt Q07869).
T1 construct: endogenous in cells; host or cells: HepG2
T1 sequence (Q07869 1-468): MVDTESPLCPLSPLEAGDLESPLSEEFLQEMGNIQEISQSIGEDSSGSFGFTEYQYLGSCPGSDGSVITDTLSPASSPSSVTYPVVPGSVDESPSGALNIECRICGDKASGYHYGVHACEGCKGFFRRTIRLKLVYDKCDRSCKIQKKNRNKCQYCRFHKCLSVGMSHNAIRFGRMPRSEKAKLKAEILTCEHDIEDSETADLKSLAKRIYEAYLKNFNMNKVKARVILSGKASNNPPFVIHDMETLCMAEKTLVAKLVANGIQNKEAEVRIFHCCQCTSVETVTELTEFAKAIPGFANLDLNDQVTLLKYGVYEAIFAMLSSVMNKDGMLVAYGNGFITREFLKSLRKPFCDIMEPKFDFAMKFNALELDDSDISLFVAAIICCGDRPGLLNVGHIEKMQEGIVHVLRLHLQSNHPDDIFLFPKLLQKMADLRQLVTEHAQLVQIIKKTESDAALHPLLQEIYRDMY
Kind of test: Activity test using HepG2 cells: ACS and CPT1A gene expression (PPARα agonist activity). The format is cell-based. The conditions noted are these: C11 at 50 μM and 25 μM, FIG. 4. As to the method: Next, a novel compound C11 was focused, and further activity tests using HepG2 cells were carried out. […] In the figure, GAPDH represents a housekeeping indicator, ACS represents expression of lipid metabolism gene, and CPT1A represents expression of lipolytic gene. As a drug for comparison, Bezafibrate known as PPARα agonist activity enhancer was used with 50 μM dilution, and the compound C11 of the present invention was used at concentrations of 50 μM and 25 μM.

The test system of test [4] is PPARγ. Put plainly: Differentiation induction method using 3T3-L1 cells: fat cell differentiation induction-associated gene expression (Adiponectine). It is filed as cell-based, mouse. As to conditions: 25 μM, 12 μM and 6 μM, FIG. 5. The procedure:
Subsequently, an agonist activity test on fat cell differentiation induction-associated genes was similarly carried out for C11, and the results are shown in FIG. 5. In this test, the differentiation induction method using 3T3-L1 cells was conducted. For preparing samples, a plate having a total of 24 depressions of 6 lines×4 rows was used, and a known mouse fat cells was used to observe PPARγ agonist activities. In relation to 5 samples shown in the figure, in order from the right, a sample without insulin administration, a sample dosed with 1.7 μM of insulin, a sample dosed with 25 μM of C11 compound, a sample dosed with 12 μM of C11 compound and a sample dosed with 6 μM of C11 compound are shown. CAPDH is a housekeeping indicator, C/EBPα is a control, and Adiponectine is an expressed gene.

Setting [5] is: study of aliphatic chain length of δ-lactones.

With `CCCCC[C@H]1CC=CC(=O)O1` [S body, (S)-6-pentyl-5,6-dihydro-2H-pyran-2-one], the “difference between activities of the R body and the S body, three PPARs” value in the test on PPARs was “no significant difference”. For the same compound, the “difference between PPARα values of the R and S bodies” value in the test with PPARα [1] was “significant difference”.

Take `CCCCC1CCCC(=O)O1` (stereo not shown) [δ-nonanolactone, 6-butyltetrahydro-2H-pyran-2-one]: the PPARγ agonist activity result in the test on PPARγ [2] (setting [5]) is “strong agonist activity”. For the same compound, the PPARδ agonist activity entry in the test with PPARδ (setting [5]) was “strong agonist activity”. In addition, in the test with PPARα [1], the PPARα agonist activity result is listed as “strong agonist activity”.

`Cc1cccc(Nc2cc(Cl)nc(SCC(=O)O)n2)c1C` [WY14643]: the “PPARα agonist activity, ratio to WY14643 50 μM (= 1.00)” value (“PPARα agonist activity, ratio” below) in the test on PPARα [1] (50 μM) is 1.00.

In the case of `CCCCC[C@@H]1CC=CC(=O)O1` [R body, (R)-6-pentyl-5,6-dihydro-2H-pyran-2-one], the “difference between activities of the R body and the S body, three PPARs” value in the test on PPARs was “no significant difference”. For the same compound, the “difference between PPARα values of the R and S bodies” value in the test on PPARα [1] is reported as “significant difference”.

On to `CCCCCCCC1CCCC(=O)O1` (stereo not shown) [C12, 6-heptyltetrahydro-2H-pyran-2-one], for which the PPARγ agonist activity result with PPARγ [2] (5 μM, FIG. 3) is reported as “little activities”. In addition, in the test on PPARγ [2] (FIG. 3), the “PPARγ agonist activity compared with control substance 10 μM Trogliazone” value was “considerably lower activities than the values of C9 to C11”. Moreover, in the test on PPARδ (5 μM, FIG. 2), the PPARδ agonist activity entry is “little activity”. Moreover, the “PPARα agonist activity, ratio” value in the test on PPARα [1] (5 μM) and in the test on PPARα [1] (50 μM) was “did not show strong activity” throughout.

In the case of `CCCCCCC1CC=CC(=O)O1` (stereo not shown) [C11, 6-hexyl-5,6-dihydro-2H-pyran-2-one], the “gene expression (ACS, CPT1A) compared with Bezafibrate 50 μM” value at PPARα [3] is “at least equal to or greater than that of Bezafibrate”. In the test with PPARγ [4], the “activity on fat cell differentiation induction-associated genes (Adiponectine expression)” value is listed as “effective activities”.

For the compound `CCCCCC1CCCC(=O)O1` (stereo not shown) [δ-decanolactone, 6-pentyltetrahydro-2H-pyran-2-one], the “activity of lactone structures (ring size comparison γ, δ, ϵ)” value in the test on PPARs (comparison of γ-, δ- and ϵ-decanolactone) is “relatively strong activity”. Besides, the PPARγ agonist activity result with PPARγ [2] (setting [5]) is reported as “strong agonist activity”. Further, the PPARδ agonist activity entry in the test on PPARδ (setting [5]) is “strong agonist activity”. Also, the PPARα agonist activity entry in the test with PPARα [1] is “strong agonist activity”.

In the case of `CCCCCCC1CCCC(=O)O1` (stereo not shown) [δ-undecanolactone, 6-hexyltetrahydro-2H-pyran-2-one], the PPARδ agonist activity result in the test with PPARδ (setting [5]) was “strong agonist activity”. In addition, the PPARα agonist activity entry in the test on PPARα [1] is listed as “strong agonist activity”.

Turning to `CCCC1CCCC(=O)O1` (stereo not shown) [C8, 6-propyltetrahydro-2H-pyran-2-one], the PPARγ agonist activity entry in the test on PPARγ [2] (5 μM, FIG. 3) was “little activities”. The “PPARγ agonist activity compared with control substance 10 μM Trogliazone” value in the test on PPARγ [2] (FIG. 3) is reported as “considerably lower activities than the values of C9 to C11”. Besides, the PPARδ agonist activity result in the test on PPARδ (5 μM, FIG. 2) is recorded as “little activity”. Also, the “PPARα agonist activity, ratio” value with PPARα [1] (5 μM) is given as “can hardly be expected for the activity”.
